Source: ChEMBL document CHEMBL6177984, “Pyrazolo[1,5-a]pyrimidine-Based Type-I Photosensitizer as an Efficient Pyroptosis Inducer for Tumor Ablation” (J Med Chem, 2025)
Active and inactive are the calls of the source. The calls are words filed in the database; no cut-off is given here.

Assays:
MDA-MB-231 [1] = test: Induction of pyroptosis mediated immunogenic cell death in human MDA-MB-231 cells assessed as increase in CRT exposure on cell membrane at 0.5 uM preincubated with compound for 1 hr followed by light irradiated with 400 to 700 nm 100 mW/cm^2 for 10 mins and measured after 18 hrs; assay type: functional, cell-based; details: time 1150.0 min
MDA-MB-231 [2] = test: Photocytotoxicity in human MDA-MB-231 cells assessed as cell viability at 1 uM preincubated with compound for 1 hr followed by light irradiated with 400 to 700 nm 100 mW/cm^2 for 10 mins and measured after 24 hrs by CCK-8 assay; assay type: functional, cell-based; details: time 1510.0 min
MDA-MB-231 [3] = test: Dark cytotoxicity against human MDA-MB-231 cells assessed as cell viability at 1 uM incubated for 24 hrs by CCK8 assay; assay type: toxicity, cell-based; details: mda-mb-231, 24 h
MDA-MB-231 [4] = test: Photocytotoxicity in human MDA-MB-231 cells assessed as cell viability preincubated with compound for 1 hr followed by light irradiated with 400 to 700 nm 100 mW/cm^2 for 10 mins and measured after 24 hrs by CCK-8 assay; assay type: functional, cell-based; details: MDA-MB-231, light or radiation study
[5] = Dark cytotoxicity against human MDA-MB-231 cells assessed as cell viability incubated for 24 hrs by CCK8 assay; assay type: toxicity, cell-based
[6] = Induction of ROS generation in BPS buffer assessed as increase in superoxide anion radical level by measuring increase in DHR123 fluorescence intensity at 10 uM irradiated with 400 to 700 nm 20 mW/cm2 light by DHR123 probe based fluorescence spectra analysis; assay type: functional; details: time <= 10.0 min
[7] = Induction of ROS generation in BPS buffer assessed as increase in singlet oxygen level by measuring reduction in ABDA absorption peak at 10 uM irradiated with 400 to 700 nm 20 mW/cm2 light […]; assay type: functional
[8] = Drug uptake in human MDA-MB-231 cells at 2 uM measured at 1 hr by flow cytometry analysis; assay type: ADME, cell-based; details: mda-mb-231, 1 h
MDA-MB-231 [9] = test: Induction of ROS production in human MDA-MB-231 cells assessed as increase in red fluorescence intensity at 0.3 uM preincubated with compound for 1 hr followed by light irradiation with 400 to 700 nm 100 mW/cm2 for 10 mins by DHE fluorescent probe based flow cytometry; assay type: functional, cell-based; details: time 70.0 min
MDA-MB-231 [10] = test: Induction of ROS production in human MDA-MB-231 cells assessed as increase in red fluorescence intensity at 0.3 uM preincubated with compound for 1 hr followed by light irradiation with 400 to 700 nm 100 mW/cm2 for 10 mins by […] fluorescent probe based flow cytometry; assay type: functional, cell-based; details: time 70.0 min
MDA-MB-231 [11] = test: Induction of ROS production in human MDA-MB-231 cells assessed as increase in […] fluorescence intensity at 0.3 uM preincubated with compound for 1 hr followed by light irradiation with 400 to 700 nm 100 mW/cm2 for 10 mins by DHE fluorescent probe based flow cytometry; assay type: functional, cell-based; details: time 70.0 min
MDA-MB-231 [12] = test: Induction of ROS production in human MDA-MB-231 cells assessed as increase in green fluorescence intensity at 0.3 uM preincubated with compound for 1 hr followed by light irradiation with 400 to 700 nm 100 mW/cm2 for 10 mins by HPF fluorescent probe based flow cytometry; assay type: functional, cell-based; details: time 70.0 min
MDA-MB-231 [13] = test: Induction of ROS production in human MDA-MB-231 cells assessed as increase in intracellular OH level at 0.3 uM preincubated with compound for 1 hr followed by light irradiation with 400 to 700 nm 100 mW/cm2 for 10 mins by HPF fluorescent probe based flow cytometry; assay type: functional, cell-based; details: time 70.0 min
4T1 [14] = test: Photocytotoxicity in mouse 4T1 cells assessed as cell viability up to 10 uM preincubated with compound for 1 hr followed by light irradiated with 400 to 700 nm 100 mW/cm^2 for 10 mins and measured after 24 hrs by CCK-8 assay; assay type: functional, cell-based; details: time 1510.0 min
MDA-MB-231 [15] = test: Photocytotoxicity in human MDA-MB-231 cells assessed as cell viability preincubated with compound for 1 hr followed by light irradiated with 400 to 700 nm 100 mW/cm^2 for 10 mins and measured after 24 hrs under hypoxic condition by CCK-8 assay; assay type: functional, cell-based; details: MDA-MB-231, light or radiation study
MDA-MB-231 [16] = test: Photocytotoxicity in human MDA-MB-231 cells assessed as cell death by measuring red fluorescence intensity at 0.5 uM preincubated with compound for 1 hr followed by light irradiated with 400 to 700 nm 100 mW/cm^2 for 10 mins and measured after 24 hrs by PI staining based confocal microscopic analysis; assay type: functional; details: time 1510.0 min
MDA-MB-231 [17] = test: Photocytotoxicity in human MDA-MB-231 cells assessed as cell viability by measuring green fluorescence intensity at 0.5 uM preincubated with compound for 1 hr followed by light irradiated with 400 to 700 nm 100 mW/cm^2 for 10 mins and measured after 24 hrs by Calcein-AM staining based confocal microscopic analysis; assay type: functional; details: time 1510.0 min
MDA-MB-231 [18] = test: Induction of apoptosis in human MDA-MB-231 cells assessed as cell death by flow cytometry analysis; assay type: functional, cell-based
MDA-MB-231 [19] = test: Photocytotoxicity in human MDA-MB-231 cells assessed as reduction in ATP level at 0.5 uM preincubated with compound for 6 hrs followed by light irradiated with 400 to 700 nm 100 mW/cm^2 for 10 mins; assay type: functional, cell-based; details: time 370.0 min
MDA-MB-231 [20] = test: Induction of pyroptosis in human MDA-MB-231 cells assessed as swelling bubble formation at 0.5 uM preincubated with compound for 3 hrs followed by light irradiated with 400 to 700 nm 100 mW/cm^2 for 10 mins by confocal microscopic analysis; assay type: functional, cell-based; details: time 190.0 min
MDA-MB-231 [21] = test: Induction of pyroptosis in human MDA-MB-231 cells assessed as formation of bubble-like protrusion on plasma membrane at 0.5 uM preincubated with compound for 1 hr followed by light irradiated with 400 to 700 nm 100 mW/cm^2 for 10 mins and measured after 6 hrs by DiO staining based confocal microscopic analysis; assay type: functional, cell-based; details: time 430.0 min
MDA-MB-231 [22] = test: Effect on caspase-3 expression in human MDA-MB-231 cells at 0.5 to 1 uM incubated for 3 hrs by Western blot analysis; assay type: functional, cell-based; details: dose 0.5-1 µM
MDA-MB-231 [23] = test: Effect on GSDME expression in human MDA-MB-231 cells at 0.5 to 1 uM incubated for 3 hrs by Western blot analysis; assay type: functional, cell-based; details: dose 0.5-1 µM
MDA-MB-231 [24] = test: Upregulation of cleaved caspase expression in human MDA-MB-231 cells at 0.5 to 1 uM preincubated with compound for 1 hr followed by light irradiated with 400 to 700 nm 100 mW/cm^2 for 10 mins and measured after 3 hrs by Western blot analysis; assay type: functional, cell-based; details: dose 0.5-1 µM, time 250.0 min
MDA-MB-231 [25] = test: Upregulation of N-terminal GSDME expression in human MDA-MB-231 cells at 0.5 to 1 uM preincubated with compound for 1 hr followed by light irradiated with 400 to 700 nm 100 mW/cm^2 for 10 mins and measured after 6 hrs by Western blot analysis; assay type: functional, cell-based; details: dose 0.5-1 µM, time 430.0 min
4T1 [26] = test: Induction of pyroptosis in mouse 4T1 cells preincubated with compound for 1 hr followed by light irradiated with 400 to 700 nm 100 mW/cm^2 for 10 mins; assay type: functional, cell-based; details: time 70.0 min
MDA-MB-231 [27] = test: Induction of pyroptosis in human MDA-MB-231 cells assessed as increase in IL-18 content at 0.5 uM preincubated with compound for 1 hr followed by light irradiated with 400 to 700 nm 100 mW/cm^2 for 10 mins and measured after 12 to 20 hrs; assay type: functional, cell-based; details: time 790-1270 min
MDA-MB-231 [28] = test: Induction of pyroptosis in human MDA-MB-231 cells assessed as increase in IL-1beta content at 0.5 uM preincubated with compound for 1 hr followed by light irradiated with 400 to 700 nm 100 mW/cm^2 for 10 mins and measured after 12 to 20 hrs; assay type: functional, cell-based; details: time 790-1270 min
MDA-MB-231 [29] = test: Induction of pyroptosis in human MDA-MB-231 cells assessed as change in LDH level at 0.5 uM preincubated with compound for 1 hr followed by light irradiated with 400 to 700 nm 100 mW/cm^2 for 10 mins and measured after 12 to 24 hrs; assay type: functional, cell-based; details: time 790-1510 min
MDA-MB-231 [30] = test: Induction of pyroptosis mediated immunogenic cell death in human MDA-MB-231 cells assessed as increase in ATP release at 0.5 uM preincubated with compound for 1 hr followed by light irradiated with 400 to 700 nm 100 mW/cm^2 for 10 mins and measured after 6 to 12 hrs by microplate luminometer analysis; assay type: functional, cell-based; details: time 430-790 min
MDA-MB-231 [31] = test: Induction of pyroptosis mediated immunogenic cell death in human MDA-MB-231 cells assessed as HMGB1 release from nucleus at 0.5 uM preincubated with compound for 1 hr followed by light irradiated with 400 to 700 nm 100 mW/cm^2 for 10 mins and measured after 18 hrs; assay type: functional, cell-based; details: time 1150.0 min
4T1 [32] = test: Antitumor activity against mouse 4T1 cells implanted in BALB/c mouse at 1 mg/kg, iv using self assembled nanoparticle as source of compound measured at 3 hrs; assay type: functional, organism-based
[33] = Toxicity in BALB/c mouse implanted with mouse 4T1 cells assessed as change in body weight at 1 mg/kg, iv using self assembled nanoparticle as source of compound measured up to 16 days; assay type: organism-based; details: in vivo, 384 h, time < 16 day
[34] = Toxicity in BALB/c mouse implanted with mouse 4T1 cells assessed as heart damage at 1 mg/kg, iv using self assembled nanoparticle as source of compound measured up to 16 days by H and E staining based analysis; assay type: organism-based; details: in vivo, 384 h, time < 16 day
[35] = Toxicity in BALB/c mouse implanted with mouse 4T1 cells assessed as liver damage at 1 mg/kg, iv using self assembled nanoparticle as source of compound measured up to 16 days by H and E staining based analysis; assay type: organism-based; details: in vivo, 384 h, time < 16 day
[36] = Toxicity in BALB/c mouse implanted with mouse 4T1 cells assessed as spleen damage at 1 mg/kg, iv using self assembled nanoparticle as source of compound measured up to 16 days by H and E staining based analysis; assay type: organism-based; details: in vivo, 384 h, time < 16 day
[37] = Toxicity in BALB/c mouse implanted with mouse 4T1 cells assessed as lung damage at 1 mg/kg, iv using self assembled nanoparticle as source of compound measured up to 16 days by H and E staining based analysis; assay type: organism-based; details: in vivo, 384 h, time < 16 day
[38] = Toxicity in BALB/c mouse implanted with mouse 4T1 cells assessed as kidney damage at 1 mg/kg, iv using self assembled nanoparticle as source of compound measured up to 16 days by H and E staining based analysis; assay type: organism-based; details: in vivo, 384 h, time < 16 day
4T1 [39] = test: Antitumor activity against mouse 4T1 cells implanted in BALB/c mouse assessed as increase CD4+ CD8+ cells in lymph at 1 mg/kg, iv using self assembled nanoparticle as source of compound preincubated with compound for 3 hrs followed by irradiation with 400 to 700 nm 100 mW/cm2 for 5 mins and measured after 14 days by flow cytometry analysis; assay type: functional, organism-based; details: time 20345.0 min
4T1 [40] = test: Antitumor activity against mouse 4T1 cells implanted in BALB/c mouse assessed as increase CD4+ CD8+ cells in spleen at 1 mg/kg, iv using self assembled nanoparticle as source of compound preincubated with compound for 3 hrs followed by irradiation with 400 to 700 nm 100 mW/cm2 for 5 mins and measured after 14 days by flow cytometry analysis; assay type: functional, organism-based; details: time 20345.0 min
4T1 [41] = test: Antitumor activity against mouse 4T1 cells implanted in BALB/c mouse assessed as increase in caspase-3 level at 1 mg/kg, iv using self assembled nanoparticle as source of compound preincubated with compound for 3 hrs followed by irradiation with 400 to 700 nm 100 mW/cm2 for 5 mins and measured after 14 days; assay type: functional, organism-based; details: time 20345.0 min

CC[n+]1c(/C=C/c2ccc(-c3cnn4ccc(N5CCOCC5)nc34)s2)sc2ccccc21.[I-]
Activity (MDA-MB-231 [1]): Active
Activity (MDA-MB-231 [2]): Active
Activity (MDA-MB-231 [3]): Non-toxic
IC50 (MDA-MB-231 [4]): 0.22 µM
IC50 at 24 h [5]: > 20 µM
Activity [6]: Time-dependent-effect
Activity [7]: Active
Drug uptake [8]: Active
Activity (MDA-MB-231 [9]): Active
Activity (MDA-MB-231 [10]): Active
Activity (MDA-MB-231 [11]): Active
Activity (MDA-MB-231 [12]): Active
Activity (MDA-MB-231 [13]): Active
Activity (4T1 [14]): Active
IC50 (MDA-MB-231 [15]): 1.1 µM
Activity (MDA-MB-231 [16]): Active
Activity (MDA-MB-231 [17]): Active
Activity (MDA-MB-231 [18]): Active
Activity (MDA-MB-231 [19]): Active
Activity (MDA-MB-231 [20]): Active
Activity (MDA-MB-231 [21]): Active
Activity (MDA-MB-231 [22]): inactive
Activity (MDA-MB-231 [23]): inactive
Activity (MDA-MB-231 [24]): Active
Activity (MDA-MB-231 [25]): Active
Activity (4T1 [26]): Active
Activity (MDA-MB-231 [27]): Active
Activity (MDA-MB-231 [28]): Active
Activity (MDA-MB-231 [29]): Active
Activity (MDA-MB-231 [30]): Active
Activity (MDA-MB-231 [31]): Active
Activity (4T1 [32]): Active
Activity [33]: Non-toxic
Activity [34]: Non-toxic
Activity [35]: Non-toxic
Activity [36]: Non-toxic
Activity [37]: Non-toxic
Activity [38]: Non-toxic
Activity (4T1 [39]): Active
Activity (4T1 [40]): Active
Activity (4T1 [41]): Active

CC[n+]1c(/C=C/c2ccc(-c3cnn4ccc(N5CCOCC5)nc34)o2)sc2ccccc21
IC50 (MDA-MB-231 [4]): 1.01 µM
IC50 at 24 h [5]: > 10 µM
